Experimental data from ChEMBL document CHEMBL2401692, “Synthesis, structure-activity relationships, and in vivo efficacy of the novel potent and selective anaplastic lymphoma kinase (ALK) inhibitor 5-chloro-N2-(2-isopropoxy-5-methyl-4-(piperidin-4-yl)phenyl)-N4-(2-(isopropylsulfonyl)phenyl)pyrimidine-2,4-diamine (LDK378) currently in phase 1 and phase …” (J Med Chem, 2013).
Converted amounts (≈) assume the structure as drawn.

Experiments:
[1] = system: KARPAS-299; experiment: cells; details: Homo sapiens
[2] = system: BaF3; experiment: cells; details: Mus musculus
[3] = Solubility of the compound […] at pH 6.8; format: physicochemical
[4] = biological target: Cytochrome P450 3A4 (Homo sapiens, UniProt P08684); experiment: Inhibition of CYP3A4 in human liver microsomes using midazolam as substrate by LC-MS/MS analysis; format: ADME, Microsome
[5] = Intrinsic clearance in human liver microsomes; format: ADME, Microsome; details: read-out: CLH
[6] = Intrinsic clearance in mouse liver microsomes; format: ADME, Microsome; details: read-out: CLH
[7] = Intrinsic clearance in rat liver microsomes; format: ADME, Microsome; details: read-out: CLH
[8] = biological target: T1, Voltage-gated inwardly rectifying potassium channel KCNH2 (Homo sapiens, UniProt Q12809); experiment: Inhibition of human ERG by patch-clamp technique
[9] = biological target: T1, Voltage-gated inwardly rectifying potassium channel KCNH2
Description: Inhibition of human ERG by dofetilide binding assay

[10] = Oral bioavailability in Sprague-Dawley rat at 10 mg/kg; format: ADME, organism-based; details: in vivo

T1 sequence (Q12809 whole entry): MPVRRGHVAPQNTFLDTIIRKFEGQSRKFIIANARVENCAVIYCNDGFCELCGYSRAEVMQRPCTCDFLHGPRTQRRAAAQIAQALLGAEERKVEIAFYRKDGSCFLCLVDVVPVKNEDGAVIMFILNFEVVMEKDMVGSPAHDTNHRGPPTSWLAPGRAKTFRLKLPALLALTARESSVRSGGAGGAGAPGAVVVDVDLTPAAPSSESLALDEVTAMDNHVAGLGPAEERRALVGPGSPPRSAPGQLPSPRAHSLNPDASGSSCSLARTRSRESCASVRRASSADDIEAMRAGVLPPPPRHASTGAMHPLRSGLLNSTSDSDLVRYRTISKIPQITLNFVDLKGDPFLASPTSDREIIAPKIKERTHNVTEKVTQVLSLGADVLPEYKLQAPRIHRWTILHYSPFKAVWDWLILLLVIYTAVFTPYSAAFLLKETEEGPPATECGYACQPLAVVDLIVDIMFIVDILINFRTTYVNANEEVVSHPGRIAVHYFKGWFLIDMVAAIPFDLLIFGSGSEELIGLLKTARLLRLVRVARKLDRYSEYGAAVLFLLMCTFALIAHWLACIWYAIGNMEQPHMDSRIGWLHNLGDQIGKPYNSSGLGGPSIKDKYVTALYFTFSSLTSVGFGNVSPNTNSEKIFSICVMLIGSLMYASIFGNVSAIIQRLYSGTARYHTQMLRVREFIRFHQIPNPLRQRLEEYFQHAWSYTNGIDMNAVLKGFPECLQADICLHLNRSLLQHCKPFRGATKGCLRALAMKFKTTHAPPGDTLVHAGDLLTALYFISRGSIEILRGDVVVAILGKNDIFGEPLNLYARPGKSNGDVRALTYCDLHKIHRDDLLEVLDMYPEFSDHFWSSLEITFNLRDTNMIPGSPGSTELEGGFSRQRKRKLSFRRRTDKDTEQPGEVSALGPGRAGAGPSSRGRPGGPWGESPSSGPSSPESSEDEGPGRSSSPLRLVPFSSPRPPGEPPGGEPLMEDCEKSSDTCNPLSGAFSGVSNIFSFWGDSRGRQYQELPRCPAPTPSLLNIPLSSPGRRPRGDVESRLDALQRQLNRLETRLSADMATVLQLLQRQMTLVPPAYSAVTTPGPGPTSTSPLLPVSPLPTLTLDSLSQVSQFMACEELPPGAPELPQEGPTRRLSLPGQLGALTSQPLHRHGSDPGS
Sequence of Cytochrome P450 3A4 (P08684 whole entry): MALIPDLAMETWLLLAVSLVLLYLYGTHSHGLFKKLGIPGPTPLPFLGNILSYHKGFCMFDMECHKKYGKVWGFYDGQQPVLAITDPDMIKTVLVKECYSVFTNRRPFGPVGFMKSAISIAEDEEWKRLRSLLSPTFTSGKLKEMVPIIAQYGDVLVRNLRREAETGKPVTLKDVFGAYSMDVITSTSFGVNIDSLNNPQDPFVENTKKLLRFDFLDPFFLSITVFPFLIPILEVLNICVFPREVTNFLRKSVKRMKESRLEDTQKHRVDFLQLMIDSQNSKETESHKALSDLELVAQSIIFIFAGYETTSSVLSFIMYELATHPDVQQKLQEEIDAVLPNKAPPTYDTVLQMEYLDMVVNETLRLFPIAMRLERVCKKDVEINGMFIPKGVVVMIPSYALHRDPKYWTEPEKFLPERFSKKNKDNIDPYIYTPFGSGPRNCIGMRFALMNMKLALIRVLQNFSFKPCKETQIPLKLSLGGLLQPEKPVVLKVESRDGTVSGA

| Compound | IC50 [1] | IC50 [2] | solubility [3] | INH [4] | microsomal CLint [5] | microsomal CLint [6] | microsomal CLint [7] | IC50 [8] | IC50 [9] | bioavailability [10] |
| --- | --- | --- | --- | --- | --- | --- | --- | --- | --- | --- |
| Cc1cc(Nc2ncc(Cl)c(Nc3ccccc3S(=O)(=O)C(C)C)n2)c(OC(C)C)cc1C1CCN(C(C)C)CC1 | 14.5 nM | 3860 nM | – | – | – | – | – | – | – | – |
| Cc1cc(Nc2cc(Nc3ccccc3S(=O)(=O)C(C)C)c(Cl)cn2)c(OC(C)C)cc1C1CCN(C)CC1 | 5510 nM | 5410 nM | – | – | – | – | – | – | – | – |
| Cc1cc(Nc2ncc(Cl)c(Nc3ccccc3S(=O)(=O)C(C)C)n2)c(OC(C)C)cc1C1CCN(CC(=O)O)CC1 | 15.3 nM | > 10000 nM | – | – | – | – | – | – | – | – |
| Cc1cc(Nc2ncc(Cl)c(Nc3ccccc3S(=O)(=O)C(C)C)n2)c(OC(C)C)cc1C1CCN(C(=O)CN(C)C)CC1 | 21.7 nM | 2740 nM | 4 µM (≈ 2.57 µg/mL) | 0.6 µM | 46 µL/min/mg | 45 µL/min/mg | 21 µL/min/mg | – | – | – |
| Cc1cc(Nc2ncc(Cl)c(Nc3ccccc3S(=O)(=O)C3CCC3)n2)c(OC(C)C)cc1C1CCNCC1 | 13.5 nM | 2460 nM | – | – | – | – | – | – | – | – |
| Cc1cc(Nc2ncc(Cl)c(Nc3ccccc3S(=O)(=O)C(C)C)n2)c(OC(C)C)cc1C1CCNC(=O)C1 (centres undefined) | 38.4 nM | > 10000 nM | – | – | – | – | – | – | – | – |
| Cc1cc(Nc2ncc(Cl)c(Nc3ccccc3S(=O)(=O)C(C)C)n2)c(OC(C)C)cc1C1CCN(C)CC1 | 11.2 nM | 4000 nM | 64 µM (≈ 36.6 µg/mL) | 2.1 µM | 17 µL/min/mg | 15 µL/min/mg | 4 µL/min/mg | – | – | – |
| Cc1cc(Nc2ncc(Cl)c(Nc3ccccc3S(=O)(=O)C(C)C)n2)c(OC2CCC2)cc1C1CCNCC1 | 13.1 nM | 2520 nM | < 2 µM | 7.3 µM | 15 µL/min/mg | 15 µL/min/mg | 15 µL/min/mg | – | – | – |
| CC(C)Oc1cc(N2CCC(N3CCN(C)CC3)CC2)ccc1Nc1ncc(Cl)c(Nc2ccccc2S(=O)(=O)C(C)C)n1 | 25.5 nM | 3400 nM | – | – | – | – | – | – | – | – |
| Cc1cc(Nc2ncc(Cl)c(Nc3ccccc3S(=O)(=O)C(C)C)n2)c(OC(C)C)cc1C1CCN(CCO)CC1 | – | 4340 nM | 36 µM (≈ 21.7 µg/mL) | 2.5 µM | 15 µL/min/mg | 15 µL/min/mg | 14 µL/min/mg | – | – | – |
| COCCN1CCC(c2cc(OC(C)C)c(Nc3ncc(Cl)c(Nc4ccccc4S(=O)(=O)C(C)C)n3)cc2C)CC1 | 16.1 nM | 4970 nM | – | – | – | – | – | – | – | – |
| CCN1CCC(c2cc(OC(C)C)c(Nc3ncc(Cl)c(Nc4ccccc4S(=O)(=O)C(C)C)n3)cc2C)CC1 | 11.1 nM | 4120 nM | – | – | – | – | – | – | – | – |
| Cc1cc(Nc2ncc(C)c(Nc3ccccc3S(=O)(=O)C(C)C)n2)c(OC(C)C)cc1C1CCN(C)CC1 | 15.6 nM | 4080 nM | 144 µM (≈ 79.5 µg/mL) | 9.8 µM | 8 µL/min/mg | 15 µL/min/mg | 14 µL/min/mg | 20000 nM | 1100 nM | – |
| CCN1CCC(c2cc(OC(C)C)c(Nc3ncc(C)c(Nc4ccccc4S(=O)(=O)C(C)C)n3)cc2C)CC1 | 10.5 nM | 4000 nM | – | – | – | – | – | – | – | – |
| Cc1cc(Nc2ncc(C)c(Nc3ccccc3S(=O)(=O)C(C)C)n2)c(OC(C)C)cc1C1CCN(CCO)CC1 | 23.8 nM | > 10000 nM | – | – | – | – | – | – | – | – |
| CC(C)Oc1nc(C2CCNCC2)ncc1Nc1ncc(Cl)c(Nc2ccccc2S(=O)(=O)C(C)C)n1 | 33.3 nM | 3800 nM | 138 µM (≈ 75.4 µg/mL) | 9.3 µM | 16 µL/min/mg | 21 µL/min/mg | 18 µL/min/mg | – | 400 nM | – |
| Cc1cc(Nc2ncc(Cl)c(Nc3ccccc3S(=O)(=O)N(C)C)n2)c(OC(C)C)cc1C1CCN(C)CC1 | 14.3 nM | 1190 nM | – | – | – | – | – | – | – | – |
| Cc1cc(Nc2ncc(C)c(Nc3ccccc3S(=O)(=O)C(C)C)n2)c(OC(C)C)cc1C1CCNCC1 | 13.1 nM | 2880 nM | – | – | – | – | – | – | – | – |
| Cc1cc(Nc2ncc(Cl)c(Nc3ccccc3S(=O)(=O)C(C)C)n2)c(OC(C)C)cc1C1CCN(CC(F)F)CC1 | 294 nM | > 10000 nM | – | – | – | – | – | – | – | – |
| Cc1cc(Nc2ncc(Cl)c(Nc3ccccc3S(=O)(=O)C(C)C)n2)c(OC(C)C)cc1C1CCN(C2CCN(C)CC2)CC1 | 100 nM | 1420 nM | – | – | – | – | – | – | – | – |
| CC(C)Oc1cc(C2CCNCC2)ccc1Nc1ncc(Cl)c(Nc2ccccc2S(=O)(=O)C(C)C)n1 | 7.8 nM | 3010 nM | 4 µM (≈ 2.18 µg/mL) | 1.4 µM | 15 µL/min/mg | 15 µL/min/mg | 15 µL/min/mg | – | – | 12% |
| COCCN1CCC(c2cc(OC(C)C)c(Nc3ncc(C)c(Nc4ccccc4S(=O)(=O)C(C)C)n3)cc2C)CC1 | 22.4 nM | 4410 nM | – | – | – | – | – | – | – | – |
| Cc1cc(Nc2ncc(Cl)c(Nc3ccccc3S(=O)(=O)C(C)C)n2)c(OC(C)C)cc1C1CCN(CC(N)=O)CC1 | 7.9 nM | 7540 nM | – | – | – | – | – | – | – | – |
